Measurements taken from US20180185347A1, “TETRAHYDROCYCLOPENTA[B]INDOLE COMPOUNDS AND PHOSPHODIESTERASE INHIBITORS FOR THE TREATMENT OF THE SIGNS AND SYMPTOMS OF BHP” (Transition Therapeutics (Ireland 2) Limited, priority 2016, published 2018).
“Also recorded” adds a separate entry of the source.

Experiments:
orchidectomized rats [1] = test: Levator ani / bulbocavernous muscle weight in delayed ORX rat model; assay type: in vivo
From the text: Results are plotted as means±SE.
Following the androgen deficiency in the ORX model, the Levator ani- and bulbocavernous muscle weights decreased in size.

orchidectomized rats [2] = test: Prostate and seminal vesicle weight in delayed ORX rat model (SV/Prostate risk); conditions: for prostate or seminal vesical weights: delayed ORX rats, 2 or 8 weeks, doses up to 20-30 mg/kg
From the text: Orchidectomized (ORX) and sham-operated Wistar male rats were used (orchidectomized at 8 weeks of age and allowed to waste for 4 weeks). […] Rats were randomized and placed into treatment groups (n=6) based on body weight. Route of administration for all groups except testosterone enanthate (TE was given sub-cutaneously) was oral. At the end of 2 weeks of daily rats were euthanized, weighed & tissue harvested. Levator ani, prostates, and seminal vesicles were collected from each animal. Results are plotted as means±SE.

rats = test: Rat toxicology program: prostate weight and atrophy; assay type: in vivo; parameters: key: “”: no effect observed
[3] = Study GPBA single oral dose pharmacokinetics; conditions: human, in vivo, healthy subjects; for Cmax: geometric mean; for Tmax: median
PSA levels = test: PSA in ED patients failing tadalafil (Study GPEC); assay type: in vivo, human; conditions: for PSA levels: ED patients, alone or with tadalafil, PSA about 2.0 ng/ml or more
From the text: The results of this study are illustrated in FIG. 7. […] (see FIG. 8 and FIG. 9).

[4] = Clinical body composition and muscle power; assay type: in vivo, human
From the text: The Phase 2 Study for ED also included exploratory measures for lower extremity muscle strength and power, LBM and fat mass. […] The results are illustrated in FIGS. 12, 13, and 14.

[5] = Clinical safety and laboratory parameters; conditions: for hemoglobin and hematocrit: any dose tested, 12 weeks
[6] = Study GPEC, 12 weeks, 5 mg + 5 mg tadalafil compared with 10 mg tadalafil
[7] = clinical studies in patients with androgen deficiency

CC(C)OC(=O)N[C@H]1Cc2c(n(Cc3ccccn3)c3ccc(C#N)cc23)C1 [compound of Formula II, (S)-(7-cyano-4-pyridin-2-ylmethyl-1,2,3,4-tetrahydro-cyclopenta[b]indol-2-yl)-carbamic acid isopropyl ester]
ED50 (orchidectomized rats [1]; Rattus norvegicus, read-out: ED50 for the levator ani muscle): 1 to 3 mg/kg
Levator ani- and bulbocavernous muscle weights (orchidectomized rats [1]; delayed ORX rat, 8 weeks, 1 to 3 mg/kg/day): increased significantly
changes in the prostate of orchidectomized rats (orchidectomized rats [2]; 30 mg/kg, the highest dose examined): did not induce changes
prostate or seminal vesical weights (orchidectomized rats [2]): had no effect; also recorded: minimal accrual SV/Prostate risk
prostate or seminal vesical weights (orchidectomized rats [2]; listed as TT701): minimal accrual SV/Prostate risk
Prostate weight (mean % decrease) (rats; 1+ months, 15 mg/kg/day): “”
Prostate weight (mean % decrease) (rats; 1+ months, 150 mg/kg/day): “”
Prostate weight (mean % decrease) (rats; 1+ months, 1500 mg/kg/day): “”
Prostate weight (mean % decrease) (rats; 6+ months, 15 mg/kg/day): “”
Prostate weight (mean % decrease) (rats; 6+ months, 150 mg/kg/day): ^↓30%
Prostate weight (mean % decrease) (rats; 6+ months, 1500 mg/kg/day): ^↓34%
Prostate weight (mean % decrease) (rats; Male Fertility (3 months), 3 mg/kg/day): “”
Prostate weight (mean % decrease) (rats; Male Fertility (3 months), 30 mg/kg/day): ^↓23%
Prostate weight (mean % decrease) (rats; Male Fertility (3 months), 1000 mg/kg/day): ^↓39%
Cmax ([3]; single oral dose 5 mg): 25.9 ng/mL
Tmax ([3]; single oral dose 5 mg): 5 h
Cmax ([3]; single oral dose 25 mg): 123 ng/mL
Tmax ([3]; single oral dose 25 mg): 4 h
Cmax ([3]; single oral dose 250 mg): 589 ng/mL
Tmax ([3]; single oral dose 250 mg): 5 h
Cmax ([3]; single oral dose 500 mg): 817 ng/mL
Tmax ([3]; single oral dose 500 mg): 4 h
Cmax ([3]; single oral dose 1000 mg): 910 ng/mL
Tmax ([3]; single oral dose 1000 mg): 4.5 h
PSA levels (PSA levels; listed as OPK88004): significant reduction in PSA levels
PSA levels (PSA levels; listed as OPK-88004): decrease in PSA levels
PSA (PSA levels; Study GPEC, 1 mg and 5 mg for 12 weeks): not associated with increases in PSA
LBM and calf area (by CT) ([4]; Study GPBC, healthy subjects, 28 days): clinically and statistically significant increases
fat body mass and LBM [4, 6]: reduction of fat body mass and an increase (improvement) of LBM
lower extremity muscle power (stair climb) [4, 6]: increased (improved)
lean body mass [4, 7]: clinically and statistically significant increases
HDL cholesterol levels and apolipoprotein A1 ([5]; Study GPEC): decreased
testosterone ([5]; Study GPEC, 12-week, elderly men, with reduction of SHBG): clinically meaningful decrease
systolic blood pressure, diastolic blood pressure, or heart rate ([5]; clinical studies): did not yield any significant changes
decrease in the levels of endogenous testosterone [5, 7]: 20-30%
total bilirubin, GGT, or alkaline phosphatase ([5]; clinical studies, any dose): no significant increases
hemoglobin and hematocrit ([5]; clinical): no increases
hemoglobin and hematocrit ([5]; clinical, listed as TT701): no change in Hematocrit
immunotoxicity safety signal ([5]; clinical, to date): no immunotoxicity safety signal has been observed
dose demonstrated safe in clinical studies ([5]; human, in vivo): up to 1000 mgs/day
decrease in HDL ([5]; patients, 5 mg for 12 weeks): 20%
liver transaminases (AST or ALT) ([5]; phase 2 study, three subjects, two ≥2×ULN, one ≥3×ULN): transient abnormal AST or ALT
